Assay results as given in article PMC9145865, “Effects of Rare Phytocannabinoids on the Endocannabinoid System of Human Keratinocytes” (International Journal of Molecular Sciences, 2022).
Where two headings read alike, the source gives them in different places.

What was measured:
[1] = tested on: CB2; assay: Western blot protein expression of CB2; type: cell-based, human; settings: HaCaT cells, half-IC50 dose, 24 h, vs. control
Method: (§1) The HaCaT cells were seeded into 6-well plates at a density of 4 × 10^4 per well, incubated overnight and then treated with the selected pCBs (6.0 µM of CBG, 4.0 µM of CBC, 9.0 µM of THCV and 13.0 µM of CBGA) for 24 h. The cell pellets were collected and then lysed in an ice-cold lysis buffer (10 mM of EDTA, 50 mM of pH 7.4 Tris–HCl, 150 mM of sodium chloride, 1% Triton-X-100, 2 mM of phenylmethylsulfonyl fluoride, 2 mM of sodium orthovanadate, […] of leupeptin and […] of aprotinin). The amount of protein was determined using the Bio-Rad Protein assay (Bio-Rad Laboratories, Hemel Hempstead, UK). An equal amount of protein (60 µg) was loaded onto 10% sodium dodecyl sulfate–polyacrylamide gels and blotted onto polyvinylidene fluoride sheets (Amersham Biosciences, Piscataway, NJ, USA). The membranes were blocked with dried 5% non-fat milk for 1 h and then incubated with suitable primary antibodies. Detection was performed using Azure Biosystems c400 (Dublin, CA, USA). The membranes were stripped using the Restore Western Blot Stripping Buffer from Thermo Fisher Scientific (Waltham, MA, USA) for 30 min under agitation at room temperature, according to the manufacturer’s instructions. The primary antibodies (Table 6) that were used were obtained from the following sources: […]

[2] = tested on: TRPV1; assay: Western blot protein expression of TRPV1; type: cell-based, human; settings: HaCaT cells, half-IC50 dose, 24 h, vs. control
Method: as §1

[3] = tested on: PPARα; assay: Western blot protein expression of PPARα; type: cell-based, human; settings: HaCaT cells, half-IC50 dose, 24 h, vs. control
Method: as §1

[4] = tested on: PPARδ; assay: Western blot protein expression of PPARδ; type: cell-based, human; settings: HaCaT cells, half-IC50 dose, 24 h, vs. control
Method: as §1

[5] = tested on: NAPE-PLD; assay: Western blot protein expression of NAPE-PLD; type: cell-based, human; settings: HaCaT cells, half-IC50 dose, 24 h, vs. control
Method: as §1

[6] = tested on: TRPV1; assay: TRPV1 calcium assay (capsaicin-triggered intracellular Ca2+ release); type: cell-based, human; settings: HaCaT cells, half-IC50 amount, 24 h; capsaicin 1 µM; vs. control
Method: The effects of the pCBs on intracellular Ca^2+ release that was induced by TRPV1 activation was determined using the selective intracellular fluorescent probe Fluo-3 AM (Molecular probes, Eugene, OR, USA). The HaCaT cells (1 × 10^6 cells) were loaded for 15 min at 25 °C with 4 µM of Fluo-3 AM, which contained 0.02% Pluronic F-127 (Molecular probes) in an OPTIMEM medium, and then they were washed in the Tyrode’s buffer (145 mM of NaCl, 2.5 mM of KCl, 1.5 mM of CaCl2, 1.2 mM of MgCl2, 10 mM of D-glucose and 10 mM of HEPES; pH 7.4), resuspended in 2 mL of the Tyrode’s buffer and transferred into the quartz cuvette of the LS50B spectrofluorometer (Perkin Elmer, Waltham, MA, USA). Fluorescence was measured at 25 °C (excitation at λ = 488 nm; emission at λ = 516 nm) from the HaCaT cells, which had been pre-incubated with each pCB (6.0 µM of CBG, 4.0 of µM CBC, 9.0 µM of THCV and 13.0 µM of CBGA) and then stimulated with the selective TRPV1 agonist capsaicin (1 µM), as reported in [64]. The TRPV1-mediated intracellular Ca^2+ elevation was expressed as fluorescence intensity (arbitrary units, AU) per 10^6 cells.

[7] = tested on: FAAH; assay: FAAH activity assay in membranes of treated cells; type: cell-based, human; settings: HaCaT cells, half-IC50 amount, 24 h, vs. control
Method: FAAH Assay: The HaCaT cells were seeded into 6-well plates at a density of 4 × 10^4 per well, incubated overnight and then treated with the selected pCBs (6.0 µM of CBG, 4.0 µM of CBC, 9.0 µM of THCV and 13.0 µM of CBGA) for 24 h. The cell pellets were collected and FAAH activity was determined using membranes that were isolated from these cells. Briefly, the membranes were incubated at pH 7.4 with 10 μM of [^3H]AEA and 50 mM of Tris–HCl, 0.05% BSA at 37 °C in water bath for 30 min. The reaction was blocked with 1 mL of chloroform–methanol (1:1 v/v) and centrifuged at 3000 rpm for 10 min at 4 °C. The aqueous (top) layer was collected and transferred into scintillation vials. The amount of [^3H]ethanolamine that was released was expressed as pmol per min per mg of protein, as reported in [67].

[8] = tested on: MAGL; assay: MAGL activity assay in membranes of treated cells; type: cell-based, human; settings: HaCaT cells, half-IC50 amount, 24 h, vs. control
Method: MAGL Assay: The HaCaT cells were seeded into 6-well plates at a density of 4 × 10^4 per well, incubated overnight and then treated with the selected pCBs (6.0 µM of CBG, 4.0 µM of CBC, 9.0 µM of THCV and 13.0 µM of CBGA) for 24 h. The cell pellets were collected and MAGL activity was determined using membranes that were isolated from these cells using the synthetic substrate arachidonoyl-1-thio-glycerol (200 μM) in 10 mM of Tris and 1 mM of EDTA pH 7.2 at 4 °C for 15 min [68]. The MAGL inhibitor JZL184 (4 μM), which was purchased from Sigma-Aldrich (St. Louis, MO, USA), was used to fully erase the enzyme activity as a control.

[9] = tested on: CB2; settings: cited from earlier work
[10] = tested on: human TRPV1; parameters: method as in PMID 21175579; settings: over-expressed by HEK-293 cells; ref [41]; cited from earlier work
[11] = tested on: HaCaT cells; assay: Apoptosis, DNA fragmentation ELISA; type: cell-based, human; settings: 24 h
Method: The HaCaT cells were seeded into 96-well plates at a density of 1 × 10^4 per well, incubated overnight and then treated with the selected pCBs at different concentrations (0.5 μM, 1.0 μM, 2.5 μM, 5.0 μM, 10 μM and 25 μM) for 24 h. After treatment, apoptotic cell death was quantified for specific compounds using ELISA assays, which were based on the evaluation of DNA fragmentation through an immunoassay for histone-associated DNA fragments in the cell cytoplasm. The specific determination of mono- and oligonucleosomes in the cytoplasmic fraction of cell lysates was performed by measuring the absorbance values at 405 nm, as reported in [60].

Row | SMILES | CB2 protein expression (in words) [1] | Protein Expression CB2 [1] | Protein Expression TRPV1 [2] | PPARα protein expression (in words) [3] | Protein Expression PPARα [3] | PPARδ protein expression (in words) [4] | Protein Expression PPARδ [4] | NAPE-PLD protein expression (in words) [5] | TRPV1 channel stimulation (intracellular Ca2+ release triggered by capsaicin) [6] | activity of FAAH [7] | activity of MAGL [8] | activity at CB2 ([9]; ref [28],[50],[51]) | effectiveness in human TRPV1 [10] | DNA fragmentation (hallmark of apoptosis) ([11]; all doses (0.5-25 µM)) | Protein Expression NAPE-PLD [5] | activity at CB2 ([9]; in vivo and in vitro, ref [53]) | DNA fragmentation (hallmark of apoptosis) ([11]; 25 µM) | activity at CB2 ([9]; ref [52]) | DNA fragmentation (hallmark of apoptosis) ([11]; 10 µM)
1 | CCCCCc1cc(O)c2c(c1)OC(C)(CCC=C(C)C)C=C2 (centres unmarked) [CBC, cannabichromene] | reducing | ↓+ | ↑++++ | significantly reduced | ↓++ | significantly reduced | ↓++++ | significantly increased | significantly increased | significantly increased | significantly increased | CB2 agonist | to a lesser extent | – | – | – | – | – | –
2 | CCCc1cc(O)c2c(c1)OC(C)(C)[C@@H]1CCC(C)=C[C@@H]21 [THCV, Δ^9-tetrahydrocannabivarin] | reducing | ↓+++ | ↑++++ | significantly reduced | ↓++ | significantly reduced | ↓++++ | significantly increased | significantly increased | significantly increased | significantly increased | – | high effectiveness | ineffective | ↑++++ | partial CB2 agonist | – | – | –
3 | CCCCCc1cc(O)c(C/C=C(\C)CCC=C(C)C)c(O)c1C(=O)O [CBGA, cannabigerolic acid] | reducing | ↓++++ | ↑++++ | significantly reduced | ↓++++ | significantly reduced | ↓++++ | significantly increased | significantly increased | significantly increased | significantly increased | – | – | – | NAPE-PLD ↑++++ FAAH ↑++++ DAGLα ↑++++ MAGL ↑++++ | – | significant increase | partial agonists | –
4 | CCCCCc1cc(O)c(C/C=C(\C)CCC=C(C)C)c(O)c1 [CBG, cannabigerol] | reducing | ↓+ | ↑++++ | – | – | significantly reduced | ↓+++ | significantly increased | significantly increased | significantly increased | significantly increased | – | high effectiveness | – | ↑++++ | – | significant increase | partial agonists | induced the same effect
